Key:
canine fetal myoblasts = assay: SDF-1 induced transwell cell migration; assay type: cell-based; conditions: 30 μM
Procedure: Cells were placed at a concentration of 5×10^4/well in the upper chamber (BD Biosciences), and the chamber was placed in a 24-well culture plate (BD Biosciences) containing culture medium and 100 nM SDF-1 for measuring the migratory capacity of myoblast cells. After 48 hours of incubation at 37° C., the medium was removed, and the insert was transferred to a second plate containing Calcein-AM solution. The plates were incubated for 90 minutes at 37° C. in a 5% CO2 incubator. The fluorescence of migrating cells was read in a fluorescence microplate reader with bottom reading capabilities at excitation/emission wavelengths of 485/530 nm. […] Apoj expression can also provide protection against apoptotic stem cell death. This finding is consistent with published results that ApoJ expression can provide some protection against apoptotic cell death. Exposure to oxidized cholesterol or oxysterol often triggers apoptosis in a variety of cells and atheroma contains abundant oxysterols such as 7-ketocholsterol. Therefore, a study was done to establish that ApoJ expression will exert protective effects against apoptotic cell death for stem cells. After incubation of vascular smooth muscle cells from the aorta of ApoJ-knockout mice or wild-type mice with 10 μg/ml 7-ketocholsterol for 24-48 the cells were examined for viability by stained with a combination of acridine orange and ethidium bromide. […]

KG-293 cells = assay: TCN-induced ApoJ expression and TNF-α induced apoptosis in KG-293 cells; assay type: cell-based, human; conditions: 10 ng/ml for 24- and 48-hours
Source text: Recent studies have shown that ApoJ can be induced by certain growth factors such as TGF-ß translocate to the nucleus participating in apoptosis regulation. To determine whether intracellular expression of ApoJ inhibits receptor-mediated apoptosis induced by cytokines, we constructed a plasmid (pkS7) with ApoJ cDNA insert lacking the sequence for the domain of protein secretion. The non-secreted, intracellular isoform of ApoJ gene mimics the intracellular isoform inducible by TGF-ß. Under regulation by a CMV promoter with TCN-responding elements, pKS7 transfection of HEK293 cells generated a stable cell line (KG-293) with ApoJ over expression. […] KG-293 cells over expressing the intracellular form of ApoJ also underwent dramatic alterations in morphology and proliferation.

Compound	effect on SDF-1 induced migration of ApoJ-overexpressing myoblasts (canine fetal myoblasts)	apoptosis in control KG-293 cells not exposed to TCN (KG-293 cells)
COc1cccc(-c2cc(=O)c3ccccc3o2)c1N [PD98059]	did not have any significant impact	–
TNF-α	–	marked apoptosis
